This passage reports IC50 results from BindingDB's records for doi:10.1002/cbic.201600636 (The University of Sydney, 2017).

For assay [1], the target named is Lipoxygenase (Solanum tuberosum, UniProt O49150). As to the kind of experiment: Colorimetric 5-LO Assay. On the procedure: A colorimetric 5-LO assay kit (Lipoxygenase Inhibitor Screening Assay Kit) and potato 5-LO isolate were purchased from Cayman Chemicals (Ann Arbor, MI). 5-LO inhibition assay was performed according to the instruction manuals. All samples were dissolved in dimethyl sulfoxide, except for 1 and 2, which were dissolved in the assay buffers provided. All assays were performed in triplicate, and errors were calculated as standard deviation.
Sequence of Lipoxygenase (O49150 whole entry): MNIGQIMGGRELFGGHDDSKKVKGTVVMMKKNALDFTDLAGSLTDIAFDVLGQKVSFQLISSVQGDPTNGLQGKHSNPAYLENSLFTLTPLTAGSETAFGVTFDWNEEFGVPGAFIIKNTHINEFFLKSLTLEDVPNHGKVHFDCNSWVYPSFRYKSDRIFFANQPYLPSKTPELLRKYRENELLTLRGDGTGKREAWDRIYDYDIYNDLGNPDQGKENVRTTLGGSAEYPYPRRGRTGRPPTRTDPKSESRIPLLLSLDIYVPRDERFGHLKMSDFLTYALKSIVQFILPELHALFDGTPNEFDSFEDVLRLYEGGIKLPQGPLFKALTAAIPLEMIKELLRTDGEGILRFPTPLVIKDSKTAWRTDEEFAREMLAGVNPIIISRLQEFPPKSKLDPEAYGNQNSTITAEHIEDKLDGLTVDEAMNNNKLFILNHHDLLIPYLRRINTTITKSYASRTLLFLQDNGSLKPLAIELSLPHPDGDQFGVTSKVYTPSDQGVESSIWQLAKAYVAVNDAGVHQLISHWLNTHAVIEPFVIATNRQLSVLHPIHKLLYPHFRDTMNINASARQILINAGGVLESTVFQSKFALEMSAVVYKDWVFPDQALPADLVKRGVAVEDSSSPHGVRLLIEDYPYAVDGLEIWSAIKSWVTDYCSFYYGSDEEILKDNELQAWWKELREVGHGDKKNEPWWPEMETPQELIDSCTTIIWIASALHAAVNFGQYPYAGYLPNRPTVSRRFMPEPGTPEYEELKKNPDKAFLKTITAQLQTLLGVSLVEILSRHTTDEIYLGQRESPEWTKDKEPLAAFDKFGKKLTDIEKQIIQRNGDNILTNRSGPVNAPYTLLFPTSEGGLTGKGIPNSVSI

Assay [2] addresses Histone deacetylase 1 (Homo sapiens, UniProt Q13547). Kind of assay: Fluorometric Activity Assay. On the procedure:
A FLUOR DE LYS fluorometric activity assay kit (HDAC source: HeLa cell nuclear extract) and a FLUOR DE LYS HDAC1 fluorometric drug discovery assay kit (HDAC source: human recombinant HDAC1) were purchased from Enzo Life Sciences (Farmingdale, NY). HDAC inhibition assay was performed according to the instruction manuals. All samples were dissolved in dimethyl sulfoxide, except for 1 and 2, which were dissolved in the assay buffers provided. All assays were performed in triplicate, and errors were calculated as standard deviation.

Sequence of Histone deacetylase 1 (Q13547 whole entry): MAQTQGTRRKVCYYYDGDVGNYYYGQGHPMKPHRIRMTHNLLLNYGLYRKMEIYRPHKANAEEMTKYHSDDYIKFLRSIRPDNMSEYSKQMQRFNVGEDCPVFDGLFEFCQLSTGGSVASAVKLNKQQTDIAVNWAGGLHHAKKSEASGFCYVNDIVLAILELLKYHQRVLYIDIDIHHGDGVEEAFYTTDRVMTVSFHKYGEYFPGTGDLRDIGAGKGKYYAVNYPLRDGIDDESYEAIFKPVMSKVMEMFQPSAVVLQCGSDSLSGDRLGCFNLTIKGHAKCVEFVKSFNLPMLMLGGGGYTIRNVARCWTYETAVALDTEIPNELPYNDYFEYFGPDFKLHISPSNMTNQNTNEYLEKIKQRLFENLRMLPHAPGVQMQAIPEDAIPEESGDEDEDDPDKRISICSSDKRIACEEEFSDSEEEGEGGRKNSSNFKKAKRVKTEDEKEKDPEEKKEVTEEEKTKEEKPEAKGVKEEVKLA

Regarding `CC(=O)N(O)C/C=C/c1cccc(Oc2ccccc2)c1` [N-(3-phenoxycinnamyl)acetohydroxamic acid], in assay [1], the IC50 (as a rule, the concentration at which inhibition is half-maximal) is 17.1 µM. This lies in the double-digit micromolar range.
Regarding `CC(=O)N(O)CCCCCNC(=O)CCC(=O)N(O)CCCCCN1C(=O)c2cccc3cccc(c23)C1=O` [BIQD-substituted compound, S5], the IC50 in assay [1] was determined as 2340 µM; in assay [2], 314 µM.
Compound `CC(=O)N(O)CCCCCNC(=O)CCC(=O)N(O)CCCCCNC(=O)CCC(=O)N(O)CCCCCN1C(=O)c2cccc3cccc(c23)C1=O` [BIQD-substituted compound, S1] yielded an IC50 in assay [2] of 258 µM.
`O=C(CCCCCN1C(=O)c2cccc3cccc(c23)C1=O)NO` [6-(1,3-Dioxo-1H,3H-benzo[de]isoquinolin-2-yl)-hexanoic acid hydroxyamide] registered an IC50 in assay [1] of 212 µM.
Regarding `CC(=O)N(O)CCCCCN1C(=O)c2cccc3cccc(c23)C1=O` [BIQD-substituted compound, S2], the IC50 worked out at 58.9 µM in assay [1] and 172 µM in assay [2].
